Test results: patent US20120015907A1, “Furopyridine compounds and uses thereof” (NOVARTIS AG, priority 2010, published 2012)

Experiments:
HCV polymerase = molecular target: T1, HCV polymerase (Hepatitis C virus genotype 1b, UniProt Q9WMX2); experiment: biochemical; settings: polymerase assay of Biological Example 1; read-out: NS5B polymerase IC50
T1 construct: (His)6 (C)

[1] = test system: HCV replicon I389luc-ubi-neo/NS3-3'/ET in ET (Huh-lucubineo-ET) cells; experiment: Replicon assay (Biological Example 2), luciferase read-out; assay type: cell-based; settings: Hepatitis C virus, luciferase activity 48 hours after compound addition
Protocol: A cell line, ET (Huh-lucubineo-ET) is used for screening of compounds for inhibiting HCV RNA dependent RNA polymerase. The ET cell line is stably transfected with RNA transcripts harboring a I389luc-ubi-neo/NS3-3′/ET; replicon with firefly luciferase-ubiquitin-neomycin phosphotransferase fusion protein and EMCV-IRES driven NS3-5B polyprotein containing the cell culture adaptive mutations (E1202G; […]; K1846T) (Krieger at al, 2001 and unpublished). The ET cells are grown in DMEM (Dulbeco's Modified Eagle's Medium), supplemented with 10% fetal calf serum, 2 mM Glutamine, Penicillin (100 IU/mL)/Streptomycin (100 μg/mL), 1× nonessential amino acids, and 250 μg/mL G418 (“Geneticin”). Reagents are all available through Life Technologies (Bethesda, Md.). The cells are plated at 0.5-1.0×10^4 cells/well in the 96 well plates and incubated for 24 hrs before adding test compound. The compounds are added to the cells to achieve a final concentration of 0.1 nM to 50 μM and a final DMSO (dimethylsulfoxide) concentration of 0.5%. Luciferase activity is measured 48 hours later by adding a lysis buffer and the substrate (Catalog number Glo-lysis buffer E2661 and Bright-Glo luciferase system E2620 Promega, Madison, Wis.). Cells should not be too confluent during the assay. Percent inhibition of replication data is plotted relative to no compound control. To determine the EC50 (effective concentration at which 50% of the maximum inhibition is observed), a 10 point, 3-fold serial dilution for each compound is used, which spans a concentration range of 1000 fold. EC50 values were calculated by fitting % inhibition at each concentration to the following equation:
% inhibition=100%/[(EC50/[I])^b+1]
where b is Hill's coefficient.

Compound | IC50 (HCV polymerase) | IC50 [1]
CNC(=O)c1c(-c2ccc(C)cc2)oc2nc(N(C)S(C)(=O)=O)c(C3CC3)cc12 [Example 2.93, 5-cyclopropyl-N-methyl-6-(N-methylmethylsulfonamido)-2-p-tolylfuro[2,3-b]pyridine-3-carboxamide] | 0.004 µM | ≤ 0.1 µM
CNC(=O)c1c(-c2ccc(C)cc2)oc2nc(N(CCCC(C(=O)O)c3ccccc3)S(C)(=O)=O)c(C3CC3)cc12 (stereo not shown) [Example 28.5, 5-(N-(5-cyclopropyl-3-(methylcarbamoyl)-2-p-tolylfuro[2,3-b]pyridin-6-yl)methylsulfonamido)-2-phenylpentanoic acid] | 0.001 µM | ≤ 0.1 µM
CCc1cc2c(C(=O)NC)c(-c3ccc(F)cc3)oc2nc1N(CCCC1CCCS1(=O)=O)S(C)(=O)=O (single isomer, unassigned) [Example 22.991, 6-{[3-(1,1-Dioxo-tetrahydro-1lambdathiophen-2-yl)-propyl]-methanesulfonyl-amino}-5-ethyl-2-(4-fluoro-phenyl)-furo[2,3-b]pyridine-3-carboxylic acid methylamide] | 0.007 µM | ≤ 0.1 µM
CNC(=O)c1c(-c2ccc(C)cc2)oc2nc(N(C)S(C)(=O)=O)c(I)cc12 [Example 2.9, 5-iodo-N-methyl-6-(N-methylmethylsulfonamido)-2-p-tolylfuro[2,3-b]pyridine-3-carboxamide] | 0.016 µM | ≤ 0.1 µM
CNC(=O)c1c(-c2ccc(C)cc2)oc2nc(N(CCCC(C)(C)C(=O)O)S(C)(=O)=O)c(C3CC3)cc12 [Example 24, 5-[(5-Cyclopropyl-3-methylcarbamoyl-2-p-tolyl-furo[2,3-b]pyridin-6-yl)-methanesulfonyl-amino]-2,2-dimethyl-pentanoic acid] | 0.001 µM | ≤ 0.1 µM
CNC(=O)c1c(-c2ccc(F)cc2)oc2nc(N(CCCCCS(C)(=O)=O)S(C)(=O)=O)c(C3CC3)cc12 [Example 26.2, 5-cyclopropyl-2-(4-fluorophenyl)-N-methyl-6-(N-(5-(methylsulfonyl)pentyl)methylsulfonamido) furo[2,3-b]pyridine-3-carboxamide] | 0.004 µM | ≤ 0.1 µM
CNC(=O)c1c(-c2ccc(F)cc2)oc2nc3c(cc12)CCCCCCN3S(C)(=O)=O [Example 36.4, 2-(4-Fluoro-phenyl)-11-methanesulfonyl-6,7,8,9,10,11-hexahydro-5H-1-oxa-11,12-diaza-cyclonona[f]indene-3-carboxylic acid methylamide] | 0.005 µM | ≤ 0.1 µM
CCc1cc2c(C(=O)NC)c(-c3ccc(F)cc3)oc2nc1N(CCCN1CCCS1(=O)=O)S(C)(=O)=O [Example 23.1, 6-{[3-(1,1-Dioxo-isothiazolidin-2-yl)-propyl]-methanesulfonyl-amino}-5-ethyl-2-(4-fluoro-phenyl)-furo[2,3-b]pyridine-3-carboxylic acid methylamide] | 0.045 µM | ≤ 0.1 µM
CNC(=O)c1c(-c2ccc(F)cc2)oc2nc(N(CCCCC(=O)O)S(C)(=O)=O)c(I)cc12 [Example 19, 5-{[2-(4-Fluoro-phenyl)-5-iodo-3-methylcarbamoyl-furo[2,3-b]pyridin-6-yl]-methanesulfonyl-amino}-pentanoic acid] | 0.009 µM | ≥ 5 µM
C=Cc1cc2c(C(=O)NC)c(-c3ccc(F)cc3)oc2nc1N(C)S(C)(=O)=O [Example 2.1, 2-(4-fluorophenyl)-N-methyl-6-(N-methylmethylsulfonamido)-5-vinylfuro[2,3-b]pyridine-3-carboxamide] | 0.012 µM | ≤ 0.1 µM
CNC(=O)c1c(-c2ccc(Cc3ccccc3)cc2)oc2nc(N(CCCCC(=O)O)S(C)(=O)=O)c(C3CC3)cc12 [Example 27.6, 5-(N-(2-(4-benzylphenyl)-5-cyclopropyl-3-(methylcarbamoyl)furo[2,3-b]pyridin-6-yl)methylsulfonamido) pentanoic acid] | 0.001 µM | ≤ 0.1 µM
CNC(=O)c1c(-c2ccc(F)cc2)oc2nc(N(CCCC(=O)NS(C)(=O)=O)S(C)(=O)=O)c(I)cc12 [Example 18.96, 2-(4-fluorophenyl)-5-iodo-N-methyl-6-(N-(4-(methylsulfonamido)-4-oxobutyl)methylsulfonamido)furo[2,3-b]pyridine-3-carboxamide] | 0.034 µM | ≥ 5 µM
CNC(=O)c1c(-c2ccc(C)cc2)oc2nc(N(CCCC3CCCS3(=O)=O)S(C)(=O)=O)c(I)cc12 (stereo not shown) [Example 18.99, 6-{[3-(1,1-Dioxo-tetrahydrophiophen-2-yl)-propyl]-methanesulfonyl-amino}-5-iodo-2-p-totyl-furo[2,3-b]pyridine-3-carboxylic acid methylamide] | 0.005 µM | ≤ 0.1 µM
CNC(=O)c1c(-c2ccc(Cl)cc2)oc2nc(N(CCCS(C)(=O)=O)S(C)(=O)=O)c(C3CC3)cc12 [Example 25.5, 2-(4-chlorophenyl)-5-cyclopropyl-N-methyl-6-(N-(3-(methylsulfonyl)propyl)methylsuIfonamido)furo[2,3-b]pyridine-3-carboxamide] | 0.001 µM | ≤ 0.1 µM
CNC(=O)c1c(-c2ccc(C)cc2)oc2nc(N(CCCCS(C)(=O)=O)S(C)(=O)=O)c(C3CC3)cc12 [Example 25.6, 5-cyclopropyl-N-methyl-6-(N-(4-(methylsulfonyl)butyl)methylsulfonamido)-2-p-tolylfuro[2,3-b]pyridine-3-carboxamide] | 0.002 µM | ≤ 0.1 µM
CNC(=O)c1c(-c2ccc(Cl)cc2)oc2nc(N(C)S(C)(=O)=O)c(C3CC3)cc12 [Example 2.96] | 0.024 µM | ≤ 0.1 µM
CCc1cc2c(C(=O)NC)c(-c3ccc(F)cc3)oc2nc1N(CCCCS(C)(=O)=O)S(C)(=O)=O [Example 23, 5-Ethyl-2-(4-fluoro-phenyl)-6-[methanesulfonyl-(4-methanesulfonyl-butyl)-amino]-furo[2,3-b]pyridine-3-carboxylic acid methylamide] | 0.022 µM | ≤ 0.1 µM
CCc1cc2c(C(=O)NC)c(-c3ccc(F)cc3)oc2nc1N(CCCS(C)(=O)=O)S(C)(=O)=O [Example 21.992, 5-ethyl-2-(4-fluorophenyl)-N-methyl-6-(N-(3-(methylsulfonyl)propyl)methylsulfonamido)furo[2,3-b]pyridine-3-carboxamide] | 0.065 µM | ≤ 0.1 µM
CCc1ccc(-c2oc3nc(N(CCCCC(=O)O)S(C)(=O)=O)c(C4CC4)cc3c2C(=O)NC)cc1 [Example 27.8, 5-(N-(5-cyclopropyl-2-(4-ethylphenyl)-3-(methylcarbamoyl)furo[2,3-b]pyridin-6-yl)methylsulfonamido) pentanoic acid] | 0.001 µM | ≤ 0.1 µM
CNC(=O)c1c(-c2ccc(F)cc2)oc2nc(N(CCCC3CCCS3(=O)=O)S(C)(=O)=O)c(C3CC3)cc12 (stereo not shown) [Example 24.6, 5-Cyclopropyl-6-{[3-(1,1-dioxo-tetrahydrothiophen-2-yl)-propyl]-methanesulfonyl-amino}-2-(4-fluoro-phenyl)-furo[2,3-b]pyridine-3-carboxylic acid methylamide] | – | ≤ 0.1 µM
CNC(=O)c1c(-c2ccc(F)cc2)oc2nc(N(C)S(C)(=O)=O)c(CCCCCNC(=O)OC(C)(C)C)cc12 [Example 14.1, tert-butyl 5-(2-(4-fluorophenyl)-3-(methylcarbamoyl)-6-(N-methylmethylsulfonamido)furo[2,3-b]pyridin-5-yl)pentylcarbamate] | – | ≤ 0.1 µM
